# Test results as given in PubChem BioAssay AID328 (DTP/NCI, 2004).
# Where “and” joins values, the source holds several entries; their conditions need not be identical. Identical values can stand only once. Toxic doses and inconclusive results are not listed.
# Tested on: BDF1 mice, P388 leukemia ip, median survival T/C
# Assay: NCI In Vivo Anticancer Drug Screen. Data for tumor model P388 Leukemia (intraperitoneal) in B6D2F1 (BDF1) mice
# Conditions: endpoint: median survival time, higher = longer survival
# Outline: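 Transplantable tumour in mice; compound vs vehicle dosing; survival scored; ratio of treated to control reported.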
# [1] = dose: 50.0 mg/kg/injection, schedule: Q01DX009 (ip), vehicle: saline with Tween-80
# [2] = dose: 100.0 mg/kg/injection, schedule: Q01DX009 (ip), vehicle: saline with Tween-80
# [3] = dose: 200.0 mg/kg/injection, schedule: Q04DX003 (ip), vehicle: Klucel (hydroxypropylcellulose) (HPC)
# [4] = dose: 50.0 mg/kg/injection, schedule: Q01DX001 (ip), vehicle: saline with Tween-80
# [5] = dose: 100.0 mg/kg/injection, schedule: Q01DX001 (ip), vehicle: saline with Tween-80
# [6] = dose: 200.0 mg/kg/injection, schedule: Q01DX009 (ip), vehicle: saline with Tween-80
# [7] = dose: 100.0 mg/kg/injection, schedule: Q01DX009 (ip), vehicle: saline
# [8] = dose: 200.0 mg/kg/injection, schedule: Q01DX009 (ip), vehicle: saline
smiles,measurement,setting,value
COC1C(O)C(C)OC(OC2C(Oc3cccc4c(O)c5c(=O)oc6ccc(C)c7c(=O)oc(c34)c5c67)OC(C)C(O)C2O)C1O (stereo unspecified),T/C,"dose: 0.39 mg/kg/injection, schedule: Q01DX009 (ip), vehicle: other",98 % of control and 121 % of control
same,T/C,"dose: 0.39 mg/kg/injection, schedule: Q01DX009 (oral), vehicle: Klucel (hydroxypropylcellulose) (HPC)",110 % of control
same,T/C,"dose: 0.78 mg/kg/injection, schedule: Q01DX009 (ip), vehicle: other",104 % of control
same,T/C,"dose: 0.78 mg/kg/injection, schedule: Q01DX009 (oral), vehicle: Klucel (hydroxypropylcellulose) (HPC)",100 % of control
same,T/C,"dose: 1.56 mg/kg/injection, schedule: Q01DX009 (ip), vehicle: other",106 % of control
same,T/C,"dose: 1.56 mg/kg/injection, schedule: Q01DX009 (oral), vehicle: Klucel (hydroxypropylcellulose) (HPC)",98 % of control and 104 % of control
same,T/C,"dose: 3.12 mg/kg/injection, schedule: Q01DX009 (ip), vehicle: Klucel (hydroxypropylcellulose) (HPC)",159 % of control
same,T/C,"dose: 3.12 mg/kg/injection, schedule: Q01DX009 (ip), vehicle: other",159 % of control
same,T/C,"dose: 3.12 mg/kg/injection, schedule: Q01DX009 (oral), vehicle: Klucel (hydroxypropylcellulose) (HPC)",109 % of control and 110 % of control
same,T/C,"dose: 3.13 mg/kg/injection, schedule: Q01DX009 (ip), vehicle: saline with Tween-80",162 % of control
same,T/C,"dose: 6.25 mg/kg/injection, schedule: Q01DX009 (ip), vehicle: Klucel (hydroxypropylcellulose) (HPC)",173 % of control
same,T/C,"dose: 6.25 mg/kg/injection, schedule: Q01DX009 (ip), vehicle: other",200 % of control
same,T/C,"dose: 6.25 mg/kg/injection, schedule: Q01DX009 (ip), vehicle: saline with Tween-80",217 % of control
same,T/C,"dose: 6.25 mg/kg/injection, schedule: Q01DX009 (oral), vehicle: Klucel (hydroxypropylcellulose) (HPC)",101 % of control and 106 % of control
same,T/C,"dose: 8.0 mg/kg/injection, schedule: Q04DX003 (ip), vehicle: saline with Tween-80",150 % of control
same,T/C,"dose: 12.5 mg/kg/injection, schedule: Q01DX009 (ip), vehicle: Klucel (hydroxypropylcellulose) (HPC)",209 % of control
same,T/C,"dose: 12.5 mg/kg/injection, schedule: Q01DX009 (ip), vehicle: other",156 % of control and 165 % of control and 205 % of control
same,T/C,"dose: 12.5 mg/kg/injection, schedule: Q01DX009 (ip), vehicle: saline with Tween-80",190 % of control and 199 % of control
same,T/C,"dose: 12.5 mg/kg/injection, schedule: Q01DX009 (oral), vehicle: Klucel (hydroxypropylcellulose) (HPC)",103 % of control and 105 % of control
same,T/C,"dose: 16.0 mg/kg/injection, schedule: Q04DX003 (ip), vehicle: saline with Tween-80",173 % of control
same,T/C,"dose: 25.0 mg/kg/injection, schedule: Q01DX009 (ip), vehicle: Klucel (hydroxypropylcellulose) (HPC)",221 % of control
same,T/C,"dose: 25.0 mg/kg/injection, schedule: Q01DX009 (ip), vehicle: other",167 % of control and 215 % of control
same,T/C,"dose: 25.0 mg/kg/injection, schedule: Q01DX009 (ip), vehicle: saline with Tween-80",236 % of control and 210 % of control
same,T/C,"dose: 25.0 mg/kg/injection, schedule: Q01DX009 (oral), vehicle: Klucel (hydroxypropylcellulose) (HPC)",100 % of control and 105 % of control
same,T/C,"dose: 32.0 mg/kg/injection, schedule: Q04DX003 (ip), vehicle: saline with Tween-80",172 % of control
same,T/C,"dose: 43.2 mg/kg/injection, schedule: Q04DX003 (ip), vehicle: Klucel (hydroxypropylcellulose) (HPC)",170 % of control
same,T/C,"dose: 43.2 mg/kg/injection, schedule: Q04DX003 (ip), vehicle: acid diluted with saline",153 % of control
same,T/C,"dose: 50.0 mg/kg/injection, schedule: Q01DX009 (ip), vehicle: Klucel (hydroxypropylcellulose) (HPC)",221 % of control
same,T/C,"dose: 50.0 mg/kg/injection, schedule: Q01DX009 (ip), vehicle: other",231 % of control and 193 % of control
same,T/C,[1],190 % of control
same,T/C,"dose: 50.0 mg/kg/injection, schedule: Q01DX009 (oral), vehicle: Klucel (hydroxypropylcellulose) (HPC)",103 % of control and 111 % of control
same,T/C,"dose: 64.0 mg/kg/injection, schedule: Q04DX003 (ip), vehicle: saline with Tween-80",175 % of control
same,T/C,"dose: 72.0 mg/kg/injection, schedule: Q04DX003 (ip), vehicle: Klucel (hydroxypropylcellulose) (HPC)",173 % of control
same,T/C,"dose: 72.0 mg/kg/injection, schedule: Q04DX003 (ip), vehicle: acid diluted with saline",173 % of control
same,T/C,"dose: 100.0 mg/kg/injection, schedule: Q01DX009 (ip), vehicle: Klucel (hydroxypropylcellulose) (HPC)",170 % of control
same,T/C,[2],190 % of control and 220 % of control
same,T/C,"dose: 100.0 mg/kg/injection, schedule: Q01DX009 (oral), vehicle: Klucel (hydroxypropylcellulose) (HPC)",104 % of control
same,T/C,"dose: 120.0 mg/kg/injection, schedule: Q04DX003 (ip), vehicle: Klucel (hydroxypropylcellulose) (HPC)",184 % of control
same,T/C,"dose: 120.0 mg/kg/injection, schedule: Q04DX003 (ip), vehicle: acid diluted with saline",180 % of control
same,T/C,"dose: 128.0 mg/kg/injection, schedule: Q04DX003 (ip), vehicle: saline with Tween-80",182 % of control
same,T/C,"dose: 200.0 mg/kg/injection, schedule: Q01DX009 (oral), vehicle: Klucel (hydroxypropylcellulose) (HPC)",105 % of control
same,T/C,[3],175 % of control
same,T/C,"dose: 200.0 mg/kg/injection, schedule: Q04DX003 (ip), vehicle: acid diluted with saline",173 % of control
CC(C)=NNC(=O)C1CCN1C(c1ccccc1)c1ccccc1 (stereo unspecified),T/C,[4],117 % of control
same,T/C,[5],102 % of control
O=C(NCCNC(=O)c1cccc([N+](=O)[O-])c1O)c1cccc([N+](=O)[O-])c1O,T/C,"dose: 50.0 mg/kg/injection, schedule: Q01DX001 (ip), vehicle: Klucel (hydroxypropylcellulose) (HPC)",100 % of control
same,T/C,"dose: 100.0 mg/kg/injection, schedule: Q01DX001 (ip), vehicle: Klucel (hydroxypropylcellulose) (HPC)",100 % of control
same,T/C,"dose: 200.0 mg/kg/injection, schedule: Q01DX001 (ip), vehicle: Klucel (hydroxypropylcellulose) (HPC)",104 % of control
CC(=O)N(C)c1ccc(/C=C2\C=Cc3ccccc32)cc1,T/C,[2],100 % of control
same,T/C,"dose: 100.0 mg/kg/injection, schedule: Q04DX003 (ip), vehicle: saline with Tween-80",90 % of control
same,T/C,[6],95 % of control
same,T/C,"dose: 200.0 mg/kg/injection, schedule: Q04DX003 (ip), vehicle: saline with Tween-80",100 % of control
CC(C(=O)O)N(CC(=O)O)CC(=O)O.[Co+2].[NH-]CC(=O)O (stereo unspecified),T/C,"dose: 12.5 mg/kg/injection, schedule: Q01DX009 (ip), vehicle: water",99 % of control
same,T/C,"dose: 25.0 mg/kg/injection, schedule: Q01DX009 (ip), vehicle: water",108 % of control
same,T/C,"dose: 50.0 mg/kg/injection, schedule: Q01DX009 (ip), vehicle: water",105 % of control
same,T/C,"dose: 50.0 mg/kg/injection, schedule: Q04DX003 (ip), vehicle: water",103 % of control
same,T/C,"dose: 100.0 mg/kg/injection, schedule: Q04DX003 (ip), vehicle: water",96 % of control
CCB(CC)OCC1OB(CC)OC1C1OB(CC)OC1COB(CC)CC (stereo unspecified),T/C,"dose: 50.0 mg/kg/injection, schedule: Q01DX009 (ip), vehicle: saline",99 % of control
same,T/C,[7],97 % of control
same,T/C,[8],99 % of control
COc1cccc(CNc2ccc(C)c(Cl)c2)c1OC,T/C,"dose: 12.5 mg/kg/injection, schedule: Q01DX009 (ip), vehicle: gum acacia",92 % of control
same,T/C,"dose: 25.0 mg/kg/injection, schedule: Q01DX009 (ip), vehicle: gum acacia",107 % of control
same,T/C,"dose: 50.0 mg/kg/injection, schedule: Q01DX009 (ip), vehicle: gum acacia",103 % of control
same,T/C,"dose: 100.0 mg/kg/injection, schedule: Q04DX003 (ip), vehicle: gum acacia",91 % of control
same,T/C,"dose: 200.0 mg/kg/injection, schedule: Q04DX003 (ip), vehicle: gum acacia",95 % of control
same,T/C,"dose: 400.0 mg/kg/injection, schedule: Q04DX003 (ip), vehicle: gum acacia",95 % of control
COC1CCC(C=O)C(C#N)(C#N)C1(C#N)C#N (stereo unspecified),T/C,[4],112 % of control
same,T/C,[5],100 % of control
CCCCCCCC(O)CCC (stereo unspecified),T/C,"dose: 100.0 mg/kg/injection, schedule: Q04DX003 (ip), vehicle: Klucel (hydroxypropylcellulose) (HPC)",108 % of control
same,T/C,[3],100 % of control
same,T/C,"dose: 400.0 mg/kg/injection, schedule: Q04DX003 (ip), vehicle: Klucel (hydroxypropylcellulose) (HPC)",87 % of control
OCC(CO)(CO)CBr,T/C,[7],110 % of control
same,T/C,"dose: 100.0 mg/kg/injection, schedule: Q04DX003 (ip), vehicle: saline",90 % of control
same,T/C,[8],110 % of control
same,T/C,"dose: 200.0 mg/kg/injection, schedule: Q04DX003 (ip), vehicle: saline",90 % of control
same,T/C,"dose: 400.0 mg/kg/injection, schedule: Q01DX009 (ip), vehicle: saline",88 % of control
same,T/C,"dose: 400.0 mg/kg/injection, schedule: Q04DX003 (ip), vehicle: saline",114 % of control
Cc1ccc(S(=O)(=O)/C=C/c2ccccc2)cc1,T/C,[1],100 % of control
same,T/C,[2],100 % of control
same,T/C,[6],103 % of control
N#Cc1ccccc1-n1c(=O)c2cc3c(=O)n(-c4ccccc4C#N)c(=O)c3cc2c1=O,T/C,[6],162 % of control
